In brackets after ≈: the same amount, converted by molar mass.
These compounds were tested on S. aureus (assay: Minimum Inhibitory Concentration (MIC), inhibition of growth of S. aureus in vitro). Settings: Staphylococcus aureus.
Type: cell-based
Excerpt: The next step will be to test the drugs for activity in vitro to inhibit growth of bacterial cells and determination of minimum inhibitory concentration (MIC) doses for the drugs. Determining MIC doses is a standard assay in development of antibiotic drugs and methods are well known in the art. For example, MIC can be determined according to the Clinical and Laboratory Standards Institute guidelines.
Once the compounds of the present invention were identified through the MazEF screening assay described above, the activity of the compounds to inhibit growth of S. aureus in vitro was tested using the standard method of determining Minimum Inhibitory Concentrations (MICS). Such methods are well known to those of skill in the art since determining MIC doses is a standard assay in development of antibiotic drugs. For example, MIC values can be determined according to the Clinical and Laboratory Standards Institute guidelines. In Table 1, the MIC values are presented for each of the ten compounds identified through the MazEF screening assay as having potential for antibiotic activity in S. aureus.
Work on `Cc1ccc(Nc2nc3nonc3nc2N)c(C)c1` [Compound 4, N-(2,4-dimethylphenyl)[1,2,5]oxadiazolo [3,4-b]pyrazine-5,6-diamine] yielded an MIC of 12.5 µg/mL (≈ 48.8 µM). `O=C1c2ccccc2-c2onc3ccc(Cl)c1c23` [Compound 5, 5-chloro-6H-anthra[1,9-cd]isoxazol-6-one] was tested, and the MIC was 6.25 µg/mL (≈ 24.4 µM). With `CN(C)c1ccc(/C=C2\SC(=S)N(C(Cc3ccccc3)C(=O)O)C2=O)cc1` (centres unmarked) [Compound 1, 2-{5-[4-(dimethylamino)benzylidene]-4-oxo-2-thioxo-1,3-thiazolidin-3-yl}-3-phenylpropanoic acid] the MIC was 12.5 µg/mL (≈ 30.3 µM). In the case of `COc1ccc(/C=C\C(=O)C2C(=O)c3ccccc3C2=O)cc1` [Compound 10], the MIC is reported as 100 µg/mL (≈ 326 µM). `CCN1CCc2c(sc(NC(=O)Nc3ccc(Cl)cc3)c2C(N)=O)C1` [Compound 9, 2-({[(4-chlorophenyl)amino]carbonyl}amino)-6-ethyl-4,5,6,7-tetrahydrothieno[2,3-c]pyridine-3-carboxamide] gave an MIC of 100 µg/mL (≈ 264 µM).
